This is an account of results in ChEMBL document CHEMBL1201862, “PubChem BioAssay data set” (2004).

By EC50 is commonly meant the concentration that produces a half-maximal response. For orientation: AC50 means the concentration giving half of the maximal activity seen.

Test [1] is described as follows: NIH-3T3 fibroblast cytotoxicity, dose response, cytotoxicity control, cell-based, fluorescence, Alamar Blue, secondary assay (AID 2327).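 Note: NIH-3T3 mouse fibroblasts cultured with fluconazole at 8 µg/mL.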 Type of test: functional. In general terms: Alamar Blue is a resazurin reagent that responds to reducing activity.
Another test has as its system Streptococcus. Description: GAS UMAA2166 growth inhibition – luminescence, BacTiterGlo, counter-screen for streptokinase expression inhibitor project, dose response (AID 1915).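 Note: potency for reduction of bacterial viability or growth.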 Type of test: functional, organism-based.
A short description of test [2]: fluconazole-exposed Candida albicans growth modulators – fluorescence, retest, confirmation (AID 2467). In kind it is functional, cell-based.
The target of the next test is T1, Streptokinase A (Streptococcus pyogenes serotype M1, UniProt P10520).
T1 sequence (P10520 whole entry): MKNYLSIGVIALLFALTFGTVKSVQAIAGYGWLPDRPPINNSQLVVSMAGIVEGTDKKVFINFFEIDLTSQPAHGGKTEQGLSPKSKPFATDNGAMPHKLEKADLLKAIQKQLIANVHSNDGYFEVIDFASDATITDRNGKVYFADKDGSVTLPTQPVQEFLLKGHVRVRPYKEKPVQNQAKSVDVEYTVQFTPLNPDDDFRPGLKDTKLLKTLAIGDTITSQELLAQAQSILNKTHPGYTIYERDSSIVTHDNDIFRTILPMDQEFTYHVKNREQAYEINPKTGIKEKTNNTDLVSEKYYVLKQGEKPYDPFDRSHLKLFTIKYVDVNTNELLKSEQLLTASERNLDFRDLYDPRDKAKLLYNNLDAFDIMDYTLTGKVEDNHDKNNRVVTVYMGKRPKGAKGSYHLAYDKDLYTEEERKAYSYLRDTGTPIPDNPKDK
Description: viability-normalized secreted streptokinase activity reduction – plasminogen activation absorbance, OD405, dose response (AID 1914).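 Note: secreted streptokinase activity via plasminogen activation per viability signal from cell pellet.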 In kind it is functional, Streptococcus pyogenes M1 GAS.

For test [3], the target named is Heat shock protein HSP 90-alpha (Homo sapiens, UniProt P07900). Type of test: functional, organism-based.
Test [4] deals with T2, Histone-lysine N-methyltransferase NSD2 (Homo sapiens, UniProt O96028).
T2 sequence (O96028 whole entry): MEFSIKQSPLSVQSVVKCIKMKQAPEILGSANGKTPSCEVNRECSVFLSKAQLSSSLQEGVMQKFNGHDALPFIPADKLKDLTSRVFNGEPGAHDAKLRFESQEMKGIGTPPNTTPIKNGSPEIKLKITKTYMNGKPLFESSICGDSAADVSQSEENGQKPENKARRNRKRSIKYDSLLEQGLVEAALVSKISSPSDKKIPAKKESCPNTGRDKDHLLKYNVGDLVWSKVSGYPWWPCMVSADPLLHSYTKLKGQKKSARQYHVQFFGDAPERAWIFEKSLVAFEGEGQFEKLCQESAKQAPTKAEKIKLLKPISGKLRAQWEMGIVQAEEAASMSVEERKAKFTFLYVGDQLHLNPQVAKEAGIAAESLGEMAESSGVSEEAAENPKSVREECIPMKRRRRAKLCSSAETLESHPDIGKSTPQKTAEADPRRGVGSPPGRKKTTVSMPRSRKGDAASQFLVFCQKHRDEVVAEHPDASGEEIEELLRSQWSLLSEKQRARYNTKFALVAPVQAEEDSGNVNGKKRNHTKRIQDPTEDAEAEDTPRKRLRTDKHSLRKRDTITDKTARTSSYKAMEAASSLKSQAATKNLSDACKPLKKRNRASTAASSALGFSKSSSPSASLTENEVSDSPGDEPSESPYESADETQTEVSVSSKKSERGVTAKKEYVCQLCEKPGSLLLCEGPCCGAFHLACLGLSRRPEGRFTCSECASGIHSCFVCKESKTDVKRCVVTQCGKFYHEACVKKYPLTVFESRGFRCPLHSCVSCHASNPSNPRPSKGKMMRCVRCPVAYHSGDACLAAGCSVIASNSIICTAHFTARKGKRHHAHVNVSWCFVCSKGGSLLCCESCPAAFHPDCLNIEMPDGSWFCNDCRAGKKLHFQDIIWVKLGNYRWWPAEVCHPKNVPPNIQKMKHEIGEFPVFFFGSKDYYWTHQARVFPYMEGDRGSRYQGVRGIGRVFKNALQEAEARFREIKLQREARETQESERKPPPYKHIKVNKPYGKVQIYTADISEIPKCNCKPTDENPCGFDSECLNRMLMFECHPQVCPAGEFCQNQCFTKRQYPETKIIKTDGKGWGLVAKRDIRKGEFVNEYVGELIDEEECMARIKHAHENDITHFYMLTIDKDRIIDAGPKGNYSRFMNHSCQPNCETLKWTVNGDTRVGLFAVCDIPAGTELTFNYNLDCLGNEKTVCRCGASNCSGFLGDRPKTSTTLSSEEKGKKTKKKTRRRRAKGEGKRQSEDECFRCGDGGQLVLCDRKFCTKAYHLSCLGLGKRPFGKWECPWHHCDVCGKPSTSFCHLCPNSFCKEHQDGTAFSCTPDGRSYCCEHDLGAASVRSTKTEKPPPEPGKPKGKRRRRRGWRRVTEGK
In kind it is biochemical.

Test [5] addresses Peroxisome proliferator-activated receptor gamma/Nuclear receptor coactivator 3 (Homo sapiens, UniProt P37231). In kind it is functional.
The target in a further test is T3, Hexokinase-1 (Homo sapiens, UniProt P19367).
T3 sequence (P19367 whole entry): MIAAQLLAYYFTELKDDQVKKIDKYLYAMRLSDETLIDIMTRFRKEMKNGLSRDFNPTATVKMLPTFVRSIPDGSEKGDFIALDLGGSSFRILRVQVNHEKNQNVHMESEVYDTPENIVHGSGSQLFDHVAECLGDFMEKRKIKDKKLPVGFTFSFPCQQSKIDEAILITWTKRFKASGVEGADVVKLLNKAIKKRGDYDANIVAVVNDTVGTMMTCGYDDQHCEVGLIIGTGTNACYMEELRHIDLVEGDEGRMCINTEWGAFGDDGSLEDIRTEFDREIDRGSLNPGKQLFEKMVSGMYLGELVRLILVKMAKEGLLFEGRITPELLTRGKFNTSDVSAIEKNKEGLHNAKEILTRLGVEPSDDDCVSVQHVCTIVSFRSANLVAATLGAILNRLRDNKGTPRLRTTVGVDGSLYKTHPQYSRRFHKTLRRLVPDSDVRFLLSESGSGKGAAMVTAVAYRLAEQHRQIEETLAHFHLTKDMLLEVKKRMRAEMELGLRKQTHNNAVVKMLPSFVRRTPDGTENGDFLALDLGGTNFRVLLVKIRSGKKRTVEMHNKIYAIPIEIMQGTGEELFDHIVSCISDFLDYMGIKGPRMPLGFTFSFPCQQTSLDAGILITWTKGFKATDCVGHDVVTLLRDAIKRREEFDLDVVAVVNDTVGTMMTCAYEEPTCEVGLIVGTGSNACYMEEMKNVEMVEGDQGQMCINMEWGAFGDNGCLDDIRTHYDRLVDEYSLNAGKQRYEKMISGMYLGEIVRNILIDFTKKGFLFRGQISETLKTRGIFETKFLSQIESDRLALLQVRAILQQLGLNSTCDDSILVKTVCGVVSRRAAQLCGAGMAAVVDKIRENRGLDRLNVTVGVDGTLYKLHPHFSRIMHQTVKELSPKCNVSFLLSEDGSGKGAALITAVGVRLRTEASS
Put plainly: HK1 enzyme activation by HKDC1 hits – biochemical, selectivity assay for HKDC1 activator project, dose response (AID 504762). In kind it is functional.

Values joined by “and” are separate entries in the source; they are usually repeats but may differ in a detail not shown here. Equal entries are not always repeated. Active and inactive are the calls of the source.

Chain of Peroxisome proliferator-activated receptor gamma/Nuclear receptor coactivator 3 (P37231 whole entry): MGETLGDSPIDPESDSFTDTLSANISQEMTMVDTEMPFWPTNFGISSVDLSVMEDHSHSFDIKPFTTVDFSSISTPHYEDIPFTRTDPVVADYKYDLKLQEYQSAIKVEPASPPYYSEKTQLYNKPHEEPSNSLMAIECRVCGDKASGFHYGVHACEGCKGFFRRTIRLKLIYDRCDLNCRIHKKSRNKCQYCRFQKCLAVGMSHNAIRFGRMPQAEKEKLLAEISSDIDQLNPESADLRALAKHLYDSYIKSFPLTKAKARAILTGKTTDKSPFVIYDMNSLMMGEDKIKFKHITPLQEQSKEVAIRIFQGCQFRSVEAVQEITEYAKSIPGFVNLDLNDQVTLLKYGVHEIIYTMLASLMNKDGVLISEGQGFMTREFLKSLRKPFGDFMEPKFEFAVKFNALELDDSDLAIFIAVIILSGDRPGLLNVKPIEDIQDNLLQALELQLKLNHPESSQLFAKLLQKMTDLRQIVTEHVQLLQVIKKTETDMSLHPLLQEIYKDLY
Chain of Peroxisome proliferator-activated receptor gamma/Nuclear receptor coactivator 3 (Q9Y6Q9 whole entry, further chain): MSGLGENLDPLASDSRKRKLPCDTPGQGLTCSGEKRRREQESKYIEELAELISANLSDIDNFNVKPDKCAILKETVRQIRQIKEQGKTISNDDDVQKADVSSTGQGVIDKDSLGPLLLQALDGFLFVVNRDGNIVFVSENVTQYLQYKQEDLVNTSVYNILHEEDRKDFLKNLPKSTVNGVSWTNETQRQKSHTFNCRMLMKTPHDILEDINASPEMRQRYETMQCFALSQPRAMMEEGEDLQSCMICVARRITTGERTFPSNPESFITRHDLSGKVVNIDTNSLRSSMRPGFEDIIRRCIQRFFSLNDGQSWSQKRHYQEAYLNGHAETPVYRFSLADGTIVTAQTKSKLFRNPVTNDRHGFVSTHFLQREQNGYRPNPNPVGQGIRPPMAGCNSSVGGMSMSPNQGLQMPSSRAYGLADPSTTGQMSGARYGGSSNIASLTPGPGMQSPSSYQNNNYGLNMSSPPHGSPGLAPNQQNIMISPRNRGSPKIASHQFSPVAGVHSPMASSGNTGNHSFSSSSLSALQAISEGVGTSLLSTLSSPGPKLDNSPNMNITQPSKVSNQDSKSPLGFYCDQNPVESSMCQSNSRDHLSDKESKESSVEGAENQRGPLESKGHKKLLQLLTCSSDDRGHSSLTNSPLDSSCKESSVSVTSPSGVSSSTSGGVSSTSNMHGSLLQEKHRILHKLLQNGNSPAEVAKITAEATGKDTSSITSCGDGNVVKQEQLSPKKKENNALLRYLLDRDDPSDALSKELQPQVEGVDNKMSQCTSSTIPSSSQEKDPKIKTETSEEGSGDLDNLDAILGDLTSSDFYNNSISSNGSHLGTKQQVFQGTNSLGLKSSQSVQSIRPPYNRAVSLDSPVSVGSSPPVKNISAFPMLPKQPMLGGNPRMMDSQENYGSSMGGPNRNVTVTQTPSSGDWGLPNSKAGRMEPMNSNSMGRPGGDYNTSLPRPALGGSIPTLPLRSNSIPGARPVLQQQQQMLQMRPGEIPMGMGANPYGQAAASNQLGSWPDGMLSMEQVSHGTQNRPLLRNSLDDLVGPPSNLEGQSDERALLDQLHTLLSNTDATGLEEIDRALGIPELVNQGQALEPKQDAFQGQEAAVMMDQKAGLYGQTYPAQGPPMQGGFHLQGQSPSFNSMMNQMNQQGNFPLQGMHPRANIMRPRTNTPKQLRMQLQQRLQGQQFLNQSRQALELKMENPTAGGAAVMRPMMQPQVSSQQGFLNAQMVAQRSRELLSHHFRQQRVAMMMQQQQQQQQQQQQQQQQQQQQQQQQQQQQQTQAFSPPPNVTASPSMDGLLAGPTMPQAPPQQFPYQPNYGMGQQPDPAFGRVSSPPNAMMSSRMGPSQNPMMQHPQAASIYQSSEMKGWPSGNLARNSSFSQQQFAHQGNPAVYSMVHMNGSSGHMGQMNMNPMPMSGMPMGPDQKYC

Turning to `O=C(Nc1ccccc1Cl)/C(Cl)=C(\Cl)[S+]([O-])c1ccccc1` (stereo not given), the EC50 is 3.5 µM (active) in test [1], 5.14 µM (active) in the test with Streptococcus (Streptococcus), > 38 µM (not active) in test [2] and 331 nM (active) on Streptokinase A. The AC50 in test [3] is < 0.195 µM (active).
As for `O=C(NC1(O)C(=O)c2ccccc2C1=O)c1ccccc1`, in test [4], the AC50 is 6.87 µM (active).
`Cc1cc(C)nc(/N=c2/ssnc2Cl)c1`: the EC50 is > 79.4 µM (not active) in test [5] and 39.9 µM (inactive) at Hexokinase-1.
As for `Cc1ccc(C)c(S(=O)(=O)/N=C2\C=C(NS(=O)(=O)c3ccccc3)C(=O)c3ccccc32)c1`, in test [4], the AC50 was > 20 µM (inactive).
For `CCCCCCCCCCCCCCCCn1cc[n+](C)c1`, the EC50 in test [1] was 149 µM (active); in the test with Streptococcus, 4.64 µM (active); with Streptococcus (Streptococcus), 8.54 µM (active); in test [2] it was 1.74 µM (active); on Streptokinase A, 5.97 µM (active) and > 150 µM (not active). Moreover, the AC50 in test [3] is 3.48 µM (active).
